Measured values from the NIST ThermoML archive (doi:10.1021/acs.jced.6b00120).
Numbers after ± are expanded uncertainties.

Assay: xn = mol fraction of the nth substance listed
Details: Gas, Buoyancy - hydrostatic balance with magnetic suspension - two sinkers, x1 = 0.05049

Structure (SMILES): [Ar] [argon] + O=C=O
- mass density (273.15 K, 526.54 kPa): 10.5097 ± 0.0037 kg/m3
- mass density (273.15 K, 1045.7 kPa): 21.6518 ± 0.0059 kg/m3
- mass density (273.15 K, 2054.6 kPa): 46.254 ± 0.011 kg/m3
- mass density (273.15 K, 2521.6 kPa): 59.4639 ± 0.014 kg/m3
- mass density (273.15 K, 2948.2 kPa): 72.995 ± 0.017 kg/m3
- mass density (283.15 K, 487.17 kPa): 9.32016 ± 0.0035 kg/m3
- mass density (283.15 K, 1034 kPa): 20.4562 ± 0.0056 kg/m3
- mass density (283.15 K, 2045.6 kPa): 43.428 ± 0.01 kg/m3
- mass density (283.15 K, 3054.1 kPa): 70.7119 ± 0.016 kg/m3
- mass density (283.15 K, 4058.4 kPa): 105.393 ± 0.024 kg/m3
- mass density (293.15 K, 501.22 kPa): 9.23865 ± 0.0035 kg/m3
- mass density (293.15 K, 1009.9 kPa): 19.1313 ± 0.0053 kg/m3
- mass density (293.15 K, 2033.5 kPa): 40.9568 ± 0.0097 kg/m3
- mass density (293.15 K, 3031.1 kPa): 65.5032 ± 0.015 kg/m3
- mass density (293.15 K, 4032.7 kPa): 95.0463 ± 0.022 kg/m3
- mass density (293.15 K, 5045.2 kPa): 133.561 ± 0.031 kg/m3
- mass density (293.15 K, 5530.5 kPa): 157.768 ± 0.038 kg/m3
- mass density (308.15 K, 493.91 kPa): 8.62503 ± 0.0034 kg/m3
- mass density (308.15 K, 996.02 kPa): 17.7876 ± 0.0051 kg/m3
- mass density (308.15 K, 2002.5 kPa): 37.5504 ± 0.009 kg/m3
- mass density (308.15 K, 3004.5 kPa): 59.5083 ± 0.013 kg/m3
- mass density (308.15 K, 4005.8 kPa): 84.4871 ± 0.019 kg/m3
- mass density (308.15 K, 5012.9 kPa): 113.924 ± 0.026 kg/m3
- mass density (308.15 K, 6005.3 kPa): 149.364 ± 0.035 kg/m3
- mass density (308.15 K, 6991.8 kPa): 195.441 ± 0.047 kg/m3
- mass density (308.15 K, 7418.4 kPa): 221.117 ± 0.056 kg/m3
- mass density (308.15 K, 7793.4 kPa): 248.529 ± 0.066 kg/m3
- mass density (323.15 K, 521.21 kPa): 8.65936 ± 0.0034 kg/m3
- mass density (323.15 K, 1030.2 kPa): 17.4463 ± 0.005 kg/m3
- mass density (323.15 K, 2009.8 kPa): 35.3997 ± 0.0085 kg/m3
- mass density (323.15 K, 3012.4 kPa): 55.4385 ± 0.013 kg/m3
- mass density (323.15 K, 4030.3 kPa): 77.9178 ± 0.017 kg/m3
- mass density (323.15 K, 5045.6 kPa): 103.062 ± 0.023 kg/m3
- mass density (323.15 K, 6032.4 kPa): 130.908 ± 0.03 kg/m3
- mass density (323.15 K, 7032.7 kPa): 163.762 ± 0.038 kg/m3
- mass density (323.15 K, 8023.8 kPa): 202.754 ± 0.049 kg/m3
- mass density (323.15 K, 8533.5 kPa): 226.233 ± 0.056 kg/m3
- mass density (323.15 K, 8988 kPa): 249.635 ± 0.061 kg/m3
